In patent US20230003721A1, “MITOTHERAPEUTICS FOR THE TREATMENT OF BRAIN DISORDERS” (The University of Florida Research Foundation, Inc., priority 2019, published 2023):
Where a name gives a salt, the structure may show the parent alone. Read-outs that look alike come from different tables or passages of the source.

Columns and labels:
primary neurons [1] = experiment: CellTiter-Glo luminescence-based ATP assay; assay type: cell-based, mouse; conditions: for ATP: ATP orthogonal screen, 24 h; for Emax: maximal percent increase relative to in-plate DMSO controls, read-out: ATP (Effect-size)
Experimental: Measurement of ATP production. The total amount of ATP produced by cultured primary neurons was measured by CellTiter-Glo Luminescent Cell Viability Assay (Promega). A recombinant luciferase enzyme catalyzed the mono-oxygenation of luciferin while hydrolyzing ATP produced by the cells and emitting light. We followed the manufacturer's protocol with primary neurons on DIV14.
(§1) A CLARIOstar (BMG LABTECH) microplate reader was used to measure fluorescence of TMRM and luminescence produced from the ATP.
(§2) Mitochondrial membrane potential (Δψm) and luminescence-based ATP assays. […] Changes of ΔΨm in each well were monitored using the mitochondrial-specific, fluorescent dye TMRM (tetramethyl rhodamine, methyl ester; Molecular Probes) and measured using a CLARIOstar plate reader. […] This concentration was used throughout our experiments. […] Wells in columns 1 and 24 were not loaded with TMRM; these served to measure background signal which was subtracted from the wells to which TMRM was added. To measure the total ATP levels in neurons we utilized the CellTiter-Glo® luminescence-based ATP assay (Promega). DIV13 primary neurons were cultured for 24 h with either DMSO carrier or compound treatment, followed by removing 55 μl culture medium from each well. Plates were maintained at room temperature for 25 m, and 25 μl of CellTiter-Glo® Reagent with the substrate luciferin was then added to each well (Promega). Plates were covered with aluminum foil and shaken vigorously on an orbital shaker for 10 m at 200 rpm and maintained at room temperature for an additional 2 m in dark before being read with the plate reader set to the luminescence mode.
Compound library and hit picking rules. We screened 2400 compounds from the MicroSource Spectrum library. […] FIGS. 13A-13E provide details of the assays used from which hit picking rules were made. In essence, the average fluorescence for each compound in the TMRM assay was determined and compared to the average fluorescence for compounds in the population on each assay plate to produce a Z-score. The Z-scores for each individual compound assayed across the four replicate plates was then averaged. Because of significant well location effects (outer rows) on each assay plate (FIG. 13G), we selected primary hits as enhancing well fluorescence above the μplate by 3σplate for inner row wells (rows C-N, columns 3-22), and by 2.5σplate for outer row wells (rows A, B, O, P; columns 3-22) (FIG. 14C-D). […] All orthogonal assays employed inner wells of the 384-well plates.

primary neurons [2] = experiment: TMRM fluorescence assay of inner mitochondrial membrane potential (ΔΨm); conditions: for Emax: read-out: TMRM (Effect-size)
Experimental: Mitochondrial dyes. To assay the electrochemical potential across the inner mitochondrial membrane of cultured cells, we used the cell-permeant dye tetramethylrhodamine methyl ester (TMRM). For co-localization studies with Mt-GFP, TMRM was used at 20 nM on DIV14 and incubated for 30 min prior to imaging. For the orthogonal screen of compounds, TMRM was added to primary neurons on DIV13 at 10 nM, one hr prior to pintooling selected compounds, and incubated for 24 hr. Cells were washed 2× with pre-warmed fresh feeding media without B27 before measurements with a plate reader.
as §1, §2
Compound library and hit picking rules. We screened 2400 compounds from the MicroSource Spectrum library. […] FIGS. 13A-13E provide details of the assays used from which hit picking rules were made. In essence, the average fluorescence for each compound in the TMRM assay was determined and compared to the average fluorescence for compounds in the population on each assay plate to produce a Z-score. The Z-scores for each individual compound assayed across the four replicate plates was then averaged.

[3] = Mus musculus, Primary neuron, dose response

Structure (SMILES) | ATP (primary neurons [1]) [Z-scores] | TMRM Primary (primary neurons [2]; primary screen, 12.5 μM, 24 h) [Z-scores] | TMRM Rescreen (primary neurons [2]; rescreen, 24 h) [Z-scores] | other results
CC(C)NCC(O)COc1cccc2ccccc12.Cl (racemic) [propranolol hydrochloride (+/−)] | 5.06 | 4.03 | 3.07 | 
CC1(C)[C@H](O)CC(=O)[C@]2(C)[C@H]3CC[C@@]4(C)[C@H](c5ccoc5)OC(=O)[C@H]5O[C@]54[C@]3(C)C(=O)C[C@@H]12 [1,7-dideacetoxy-1,7-dioxo-3-deacetylkhivorin] | 5.46 | 3.65 | 4.00 | 
COc1cc2oc3cc(OC)c(OC)c(CC=C(C)C)c3c(=O)c2c(O)c1CC=C(C)C [1-hydroxy-3,6,7-trimethoxy-2,8-diprenylxanthone] | 5.44 | 3.34 | 3.27 | 
COc1ccc(C(=O)/C=C/c2ccccc2)cc1 [4′-methoxychalcone] | 3.97 | 3.42 | 1.48 | 
COc1ccc(-c2coc3cc(O)cc(OC)c3c2=O)cc1 [5,4′-dimethoxy-7-hydroxyisoflavone] | 5.76 | 5.24 | 6.90 | 
CC(C)CCC[C@@H](C)[C@H]1CC[C@H]2[C@@H]3CC(=O)[C@H]4C[C@@H](O)CC[C@]4(C)[C@H]3CC[C@]12C [5alpha-cholestan-3beta-ol-6-one] | 5.86 | 7.10 | 7.61 | 
O=c1[nH]c2ccccc2n1CCCN1CCC(n2c(=O)[nH]c3cc(Cl)ccc32)CC1 [DOMPERIDONE] | 5.20 | 3.33 | 5.58 | Emax (primary neurons [1]; [3]): 13%; Emax (primary neurons [2]; Mus musculus, Primary neuron): 28.3%
CC(C)(C)OO [Peroxide, tert-butyl hydroperoxide] |  |  |  | reduction of whole well TMRM fluorescence (primary neurons [2]; 50 μM, 24 h, DIV14 neuronal cultures): ~40%
CCN(CC)CCOC(=O)C(c1ccccc1)c1ccccc1 [adiphenine hydrochloride] | 4.95 | 3.05 | 3.21 | 
CC[C@H]1[C@@H]2C[C@H]3[C@@H]4N(C)c5ccccc5[C@]45C[C@@H]([C@H]2[C@H]5O)N3[C@@H]1O [ajmaline] | 4.76 | 3.76 | 6.40 | 
Nc1c(Br)cc(Br)cc1CN[C@H]1CC[C@H](O)CC1 [ambroxol hydrochloride] | 5.04 | 4.00 | 5.14 | 
CN(C)CCC=C1c2ccccc2CCc2ccccc21 [amitriptyline hydrochloride] | 4.82 | 4.78 | 1.81 | 
N=c1ccn2c(n1)O[C@H]1[C@H](O)[C@@H](CO)O[C@H]12 [ancitabine hydrochloride] | 0.14 | 3.04 | 1.36 | 
C[C@]12CC[C@@H](O)C[C@@H]1CC[C@@H]1[C@@H]2CC[C@]2(C)C(=O)CC[C@@H]12 [androsterone] | 5.63 |  |  | TMRM Primary (primary neurons [2]): 3.77 Z-scores; TMRM Rescreen (primary neurons [2]): 4.76 Z-scores
O=C1CCc2ccc(OCCCCN3CCN(c4cccc(Cl)c4Cl)CC3)cc2N1 [aripiprazole] | 3.66 | 2.98 | 7.76 | 
COc1ccc(CN=c2[nH]c(N3CCC[C@H]3CO)ncc2C(=O)NCc2ncccn2)cc1Cl [avanafil] | 1.30 | 3.13 | 3.42 | 
CN1CCCC(n2nc(Cc3ccc(Cl)cc3)c3ccccc3c2=O)CC1 (centres unmarked) [azelastine hydrochloride] | 5.30 | 7.06 | 6.13 | 

Structure (SMILES) | ATP (primary neurons [1]) [Z-scores] | TMRM Primary (primary neurons [2]; primary screen, 12.5 μM, 24 h) [Z-scores] | TMRM Rescreen (primary neurons [2]; rescreen, 24 h) [Z-scores] | other results
CCOC(=O)[C@H](CCc1ccccc1)N[C@H]1CCc2ccccc2N(CC(=O)O)C1=O [benazepril hydrochloride] | 5.26 | 3.43 | 2.43 | 
CCCCNc1ccc(C(=O)OCCOCCOCCOCCOCCOCCOCCOCCOCCOC)cc1 [benzonatate] | 4.35 | 2.78 | 8.21 | 
c1ccc(-c2ccc(C(c3ccccc3)n3ccnc3)cc2)cc1 (centres unmarked) [bifonazole] | 4.00 | 3.81 | 1.84 | 
CC(C)(c1ccc(O)cc1)c1ccc(O)cc1 [bisphenol a] | 4.73 | 3.35 | 7.40 | hit in TMRM primary screen when assayed at 4 h (primary neurons [2]; 12.5 μM, 4 h): bisphenol a*
CCCCN1CCCCC1C(=O)Nc1c(C)cccc1C (centres unmarked) [bupivacaine hydrochloride] | 4.80 | 5.35 | 5.25 | 
COC(=O)C[C@H]1C2(C)CC34OC5(C)O[C@@]6([C@H](OC(C)=O)C(OC(C)=O)[C@]7(C)C(/C(=C(/O)C(C)C)C(=O)O[C@H]7c7ccoc7)[C@@]6(O5)[C@H](OC(C)=O)[C@@]3(O)C2OC(=O)C(C)C)[C@]14C (some centres unmarked) [bussein] | 5.58 | 3.44 | 3.92 | 
CCCCOC(=O)c1ccc(O)cc1 [butyl paraben] | 3.84 | 3.42 | 4.18 | 
COC(=O)C[C@H]1C(C)(C)C(=O)[C@@H]2CC3=C(CC[C@]4(C)C3=CC(=O)O[C@H]4c3ccoc3)[C@@]1(C)C2=O [carapin-8(9)-ene] | 4.89 | 3.50 | 3.82 | 
CN(C)CCN(Cc1ccc(Cl)cc1)c1ccccn1 [chloropyramine hydrochloride] | 3.26 | 3.35 | 5.24 | 
CN(C)CCCN1c2ccccc2Sc2ccc(Cl)cc21 [chlorpromazine] | 5.00 | 2.79 | 2.66 | 
CN(C)CC/C=C1/c2ccccc2Sc2ccc(Cl)cc21 [chlorprothixene hydrochloride] | 3.17 | 6.17 | 5.04 | 
CN1CCC[C@@H]1CCO[C@](C)(c1ccccc1)c1ccc(Cl)cc1 [clemastine fumarate] |  | 2.82 | 3.22 | 
C[N+]12CCC(CC1)C(OC(=O)C(O)(c1ccccc1)c1ccccc1)C2 (centres unmarked) [clidinium bromide] | 6.21 | 2.49 | 4.11 | EC50 (primary neurons [1]; Mus musculus, Primary neuron, dose response, 15 concentrations from 6 nM to 100 uM): 420 nM; Emax (primary neurons [1]; [3]): 20.5%; Emax (primary neurons [2]; Mus musculus, Primary neuron): 14.3%; EC50 (primary neurons [2]; Mus musculus, Primary neuron, read-out: TMRM-EC50): 450 nM
CCN(CC)CCOc1ccc(C(=C(Cl)c2ccccc2)c2ccccc2)cc1 [clomiphene citrate] | 4.20 | 2.94 | 3.45 | 
CN1CCN(C2=Nc3cc(Cl)ccc3Nc3ccccc32)CC1 [clozapine] | 3.88 | 3.24 | 5.80 | 
CN(C)CCC=C1c2ccccc2C=Cc2ccccc21 [cyclobenzaprine hydrochloride] | 3.49 | 5.52 | 4.71 | 
CNCCC(Oc1ccc(C(F)(F)F)cc1)c1ccccc1 (centres unmarked) [fluoxetine hydrochloride] | 3.70 |  |  | 
